In ChEMBL document CHEMBL1143041, “On the cytotoxicity and status of oxidative stress of two novel synthesized tri-aza macrocyclic diamides as studied in the V79 cell lines” (Bioorg Med Chem, 2007):

Legend:
V79 [1] = assay: Effect on glutathione peroxidase activity in V79 cells at 30 uM after 24 hrs; type: cell-based; conditions: Cricetulus griseus
V79 [2] = assay: Effect on superoxide dismutase activity in V79 cells at 30 uM after 24 hrs; type: cell-based; conditions: Cricetulus griseus
V79 [3] = assay: Effect on catalase activity in V79 cells at 30 uM after 24 hrs; type: cell-based; conditions: Cricetulus griseus
V79 [4] = assay: Effect on malondialdehyde level in V79 cells at 30 uM after 24 hrs; type: functional, Cricetulus griseus
V79 [5] = assay: Effect on dityrosine level in V79 cells at 30 uM after 24 hrs; type: functional, Cricetulus griseus
V79 [6] = assay: Effect on 8-hydroxy-deoxyguanosine level in V79 cells at 30 uM after 24 hrs; type: functional, Cricetulus griseus
V79 [7] = assay: Increase in glutathione peroxidase activity in V79 cells at 8 mM after 24 hrs; type: cell-based; conditions: Cricetulus griseus
V79 [8] = assay: Effect on malondialdehyde level in V79 cells at 0.5 mM after 24 hrs; type: functional, Cricetulus griseus
V79 [9] = assay: Effect on malondialdehyde level in V79 cells at 1 mM after 24 hrs; type: functional, Cricetulus griseus
V79 [10] = assay: Effect on malondialdehyde level in V79 cells at 2 mM after 24 hrs; type: functional, Cricetulus griseus
V79 [11] = assay: Stimulation of ROS generation in V79 cells; type: functional, cell-based; conditions: Cricetulus griseus
V79 [12] = assay: Effect on V79 cells assessed as viable cells at 2 mM; type: functional; conditions: Cricetulus griseus, read-out: Activity
V79 [13] = assay: Effect on V79 cells assessed as viable cells at 4 mM; type: functional; conditions: Cricetulus griseus, read-out: Activity
V79 [14] = assay: Effect on V79 cells assessed as apoptotic cells at 2 mM; type: functional, Cricetulus griseus
V79 [15] = assay: Effect on V79 cells assessed as apoptotic cells at 4 mM; type: functional, Cricetulus griseus
V79 [16] = assay: Effect on V79 cells assessed as necrotic cells at 2 mM; type: functional, Cricetulus griseus
V79 [17] = assay: Effect on V79 cells assessed as necrotic cells at 4 mM; type: functional, Cricetulus griseus
V79 [18] = assay: Effect on V79 cells assessed as apoptotic cells at 2 mM in presence of 30 uM alpha-tocopherol; type: functional, Cricetulus griseus
V79 [19] = assay: Effect on V79 cells assessed as apoptotic cells at 4 mM in presence of 30 uM alpha-tocopherol; type: functional, Cricetulus griseus
V79 [20] = assay: Effect on V79 cells assessed as viable cells at 2 mM in presence of 30 uM alpha-tocopherol; type: functional, Cricetulus griseus
V79 [21] = assay: Effect on V79 cells assessed as viable cells at 4 mM in presence of 30 uM alpha-tocopherol; type: functional, Cricetulus griseus
V79 [22] = assay: Effect on superoxide dismutase activity in V79 cells at 0.5 mM after 24 hrs; type: cell-based; conditions: Cricetulus griseus
V79 [23] = assay: Increase in superoxide dismutase activity in V79 cells at 1 mM after 24 hrs; type: cell-based; conditions: Cricetulus griseus
V79 [24] = assay: Increase in superoxide dismutase activity in V79 cells at 2 mM after 24 hrs; type: cell-based; conditions: Cricetulus griseus
V79 [25] = assay: Increase in superoxide dismutase activity in V79 cells at 4 mM after 24 hrs; type: cell-based; conditions: Cricetulus griseus
V79 [26] = assay: Increase in superoxide dismutase activity in V79 cells at 8 mM after 24 hrs; type: cell-based; conditions: Cricetulus griseus
V79 [27] = assay: Effect on catalase activity in V79 cells at 0.5 mM after 24 hrs; type: cell-based; conditions: Cricetulus griseus
V79 [28] = assay: Increase in catalase activity in V79 cells at 1 mM after 24 hrs; type: cell-based; conditions: Cricetulus griseus
V79 [29] = assay: Increase in catalase activity in V79 cells at 2 mM after 24 hrs; type: cell-based; conditions: Cricetulus griseus
V79 [30] = assay: Increase in catalase activity in V79 cells at 4 mM after 24 hrs; type: cell-based; conditions: Cricetulus griseus
V79 [31] = assay: Increase in catalase activity in V79 cells at 8 mM after 24 hrs; type: cell-based; conditions: Cricetulus griseus
V79 [32] = assay: Effect on glutathione peroxidase activity in V79 cells at 0.5 mM after 24 hrs; type: cell-based; conditions: Cricetulus griseus
V79 [33] = assay: Increase in glutathione peroxidase activity in V79 cells at 1 mM after 24 hrs; type: cell-based; conditions: Cricetulus griseus
V79 [34] = assay: Increase in glutathione peroxidase activity in V79 cells at 2 mM after 24 hrs; type: cell-based; conditions: Cricetulus griseus
V79 [35] = assay: Increase in glutathione peroxidase activity in V79 cells at 4 mM after 24 hrs; type: cell-based; conditions: Cricetulus griseus
V79 [36] = assay: Effect on malondialdehyde level in V79 cells at 4 mM after 24 hrs; type: functional, Cricetulus griseus
V79 [37] = assay: Effect on malondialdehyde level in V79 cells at 8 mM after 24 hrs; type: functional, Cricetulus griseus
V79 [38] = assay: Effect on dityrosine level in V79 cells at 0.5 mM after 24 hrs; type: functional, Cricetulus griseus
V79 [39] = assay: Effect on dityrosine level in V79 cells at 1 mM after 24 hrs; type: functional, Cricetulus griseus
V79 [40] = assay: Effect on dityrosine level in V79 cells at 2 mM after 24 hrs; type: functional, Cricetulus griseus
V79 [41] = assay: Effect on dityrosine level in V79 cells at 4 mM after 24 hrs; type: functional, Cricetulus griseus
V79 [42] = assay: Effect on dityrosine level in V79 cells at 8 mM after 24 hrs; type: functional, Cricetulus griseus
V79 [43] = assay: Effect on 8-hydroxy-deoxyguanosine level in V79 cells at 0.5 mM after 24 hrs; type: functional, Cricetulus griseus
V79 [44] = assay: Effect on 8-hydroxy-deoxyguanosine level in V79 cells at 1 mM after 24 hrs; type: functional, Cricetulus griseus
V79 [45] = assay: Effect on 8-hydroxy-deoxyguanosine level in V79 cells at 2 mM after 24 hrs; type: functional, Cricetulus griseus
V79 [46] = assay: Effect on 8-hydroxy-deoxyguanosine level in V79 cells at 4 mM after 24 hrs; type: functional, Cricetulus griseus
V79 [47] = assay: Effect on 8-hydroxy-deoxyguanosine level in V79 cells at 8 mM after 24 hrs; type: functional, Cricetulus griseus
V79 [48] = assay: Effect on glutathione peroxidase activity in V79 cells at 8 mM after 24 hrs in presence of 30 uM alpha-tocopherol; type: cell-based; conditions: Cricetulus griseus
V79 [49] = assay: Effect on superoxide dismutase activity in V79 cells at 8 mM after 24 hrs in presence of 30 uM alpha-tocopherol; type: cell-based; conditions: Cricetulus griseus
V79 [50] = assay: Effect on catalase activity in V79 cells at 8 mM after 24 hrs in presence of 30uM alpha-tocopherol; type: cell-based; conditions: Cricetulus griseus
V79 [51] = assay: Effect on malondialdehyde level in V79 cells at 8 mM after 24 hrs in presence of 30 uM alpha-tocopherol; type: functional, Cricetulus griseus
V79 [52] = assay: Effect on dityrosine level in V79 cells at 8 mM after 24 hrs in presence of 30 uM alpha-tocopherol; type: functional, Cricetulus griseus
V79 [53] = assay: Effect on 8-hydroxy-deoxyguanosine level in V79 cells at 8 mM after 24 hrs in presence of 30 uM alpha-tocopherol; type: functional, Cricetulus griseus
[54] = Cytotoxicity against V79 cells assessed as viability at 8 mM after 24 hrs by MTT assay; type: cell-based, Cricetulus griseus; conditions: chinese hamster, read-out: Activity

Compound: Cc1c(C)c2c(c(C)c1O)CC[C@@](C)(CCC[C@H](C)CCC[C@H](C)CCCC(C)C)O2 [ALPHA-TOCOPHEROL]
- Activity (V79 [1]): 14.1 nmol/min/mg
- Activity (V79 [2]): 13.2 U/mg
- Activity (microM/min/mg) (V79 [3]): 4.5
- Activity (V79 [4]): 7.51 nM/mg
- Activity (V79 [5]): 0.42 nM/mg
- Activity (V79 [6]): 3.51

Compound: Cc1ccc2c(c1)Sc1cc(C)ccc1OCC(=O)NCCNCCNC(=O)CO2
- Activity (V79 [7]): 47.6 nmol/min/mg
- Activity (V79 [8]): 11.17 nM/mg
- Activity (V79 [9]): 13.77 nM/mg
- Activity (V79 [10]): 21.46 nM/mg
- Activity (V79 [11]): Dose-dependent effect
- viability at 2000 µM (V79 [12]): 71.4%
- viability at 4000 µM (V79 [13]): 58.2%
- Activity (V79 [14]): 25.1%
- Activity (V79 [15]): 37.3%
- Activity (V79 [16]): 2.6%
- Activity (V79 [17]): 4.1%
- Activity (V79 [18]): 17.4%
- Activity (V79 [19]): 22.6%
- Activity (V79 [20]): 80.5%
- Activity (V79 [21]): 69.1%
- Activity (V79 [22]): 18.8 U/mg
- Activity (V79 [23]): 21.3 U/mg
- Activity (V79 [24]): 31.2 U/mg
- Activity (V79 [25]): 40.1 U/mg
- Activity (V79 [26]): 49.2 U/mg
- Activity (microM/min/mg) (V79 [27]): 5.48
- Activity (microM/min/mg) (V79 [28]): 8.47
- Activity (microM/min/mg) (V79 [29]): 12.2
- Activity (microM/min/mg) (V79 [30]): 22.4
- Activity (microM/min/mg) (V79 [31]): 27.2
- Activity (V79 [32]): 18.6 nmol/min/mg
- Activity (V79 [33]): 23.3 nmol/min/mg
- Activity (V79 [34]): 30.6 nmol/min/mg
- Activity (V79 [35]): 37.5 nmol/min/mg
- Activity (V79 [36]): 35.691 nM/mg
- Activity (V79 [37]): 52.55 nM/mg
- Activity (V79 [38]): 0.74 nM/mg
- Activity (V79 [39]): 1.19 nM/mg
- Activity (V79 [40]): 2.45 nM/mg
- Activity (V79 [41]): 4.31 nM/mg
- Activity (V79 [42]): 8.27 nM/mg
- Activity (V79 [43]): 4.4
- Activity (V79 [44]): 5
- Activity (V79 [45]): 5.8
- Activity (V79 [46]): 7.3
- Activity (V79 [47]): 6.9
- Activity (V79 [48]): 20.8 nmol/min/mg
- Activity (V79 [49]): 21.8 U/mg
- Activity (microM/min/mg) (V79 [50]): 8.77
- Activity (V79 [51]): 15.01 nM/mg
- Activity (V79 [52]): 1.43 nM/mg
- Activity (V79 [53]): 5.76

Compound: Cc1ccc2c(c1)[S+]([O-])c1cc(C)ccc1OCC(=O)NCCNCCNC(=O)CO2
- Activity (V79 [7]): 41.1 nmol/min/mg
- Activity (V79 [8]): 8.72 nM/mg
- Activity (V79 [9]): 16.53 nM/mg
- Activity (V79 [10]): 25.16 nM/mg
- viability at 24 h, 8000 µM [54]: 24%
- Activity (V79 [11]): Dose-dependent effect
- viability at 2000 µM (V79 [12]): 54.4%
- viability at 4000 µM (V79 [13]): 41.2%
- Activity (V79 [14]): 40.2%
- Activity (V79 [15]): 51.4%
- Activity (V79 [16]): 4.6%
- Activity (V79 [17]): 6.3%
- Activity (V79 [18]): 28.5%
- Activity (V79 [19]): 32.7%
- Activity (V79 [20]): 71.2%
- Activity (V79 [21]): 52.6%
- Activity (V79 [22]): 14.4 U/mg
- Activity (V79 [23]): 22.1 U/mg
- Activity (V79 [24]): 36.4 U/mg
- Activity (V79 [25]): 48.7 U/mg
- Activity (V79 [26]): 56.4 U/mg
- Activity (microM/min/mg) (V79 [27]): 6.81
- Activity (microM/min/mg) (V79 [28]): 9.71
- Activity (microM/min/mg) (V79 [29]): 15.3
- Activity (microM/min/mg) (V79 [30]): 27.2
- Activity (microM/min/mg) (V79 [31]): 35.7
- Activity (V79 [32]): 16.6 nmol/min/mg
- Activity (V79 [33]): 22.1 nmol/min/mg
- Activity (V79 [34]): 26.3 nmol/min/mg
- Activity (V79 [35]): 33.4 nmol/min/mg
- Activity (V79 [36]): 36.63 nM/mg
- Activity (V79 [37]): 55.12 nM/mg
- Activity (V79 [38]): 0.54 nM/mg
- Activity (V79 [39]): 0.75 nM/mg
- Activity (V79 [40]): 1.61 nM/mg
- Activity (V79 [41]): 3.88 nM/mg
- Activity (V79 [42]): 6.41 nM/mg
- Activity (V79 [43]): 4.7
- Activity (V79 [44]): 5.5
- Activity (V79 [45]): 7.4
- Activity (V79 [46]): 8.5
- Activity (V79 [47]): 9.1
- Activity (V79 [48]): 22.4 nmol/min/mg
- Activity (V79 [49]): 23.5 U/mg
- Activity (microM/min/mg) (V79 [50]): 10.2
- Activity (V79 [51]): 17.63 nM/mg
- Activity (V79 [52]): 2.21 nM/mg
- Activity (V79 [53]): 6.4
